Measured values as given in ChEMBL document CHEMBL3243976, “Ring D oxygenated Spirolactones. Characterization of human metabolic product of spironolactone” (1977).

Assays:
Type in all cases: functional, Urine
Rattus norvegicus [1] = assay: Antimineralocorticoid activity in adrenalectomized rat assessed as urinary log (Na X 10)/K at 2.4 mg, sc administered post deoxycorticosterone acetate treatment relative to control
Rattus norvegicus [2] = assay: Antimineralocorticoid activity in adrenalectomized rat assessed as urinary log (Na X 10)/K at 2.4 mg, sc administered post deoxycorticosterone acetate treatment relative to spironolactone
Rattus norvegicus [3] = assay: Antimineralocorticoid activity in sc dosed adrenalectomized rat assessed as urinary log (Na X 10)/K administered post deoxycorticosterone acetate treatment relative to spironolactone
Rattus norvegicus [4] = assay: Antimineralocorticoid activity in po dosed adrenalectomized rat assessed as urinary log (Na X 10)/K administered post deoxycorticosterone acetate treatment relative to spironolactone

C[C@]12CCC(=O)C=C1C=C[C@H]1[C@@H]3[C@@H](O)C[C@@]4(CCC(=O)O4)[C@@]3(C)CC[C@@H]12
T/C (Rattus norvegicus [1]): 0.62

CC(=O)O[C@H]1C[C@@]2(CCC(=O)O2)[C@@]2(C)CC[C@H]3[C@@H](C=CC4=CC(=O)CC[C@@]43C)[C@H]12
T/C (Rattus norvegicus [1]): 0.77

C[C@]12CCC(=O)C=C1C=C[C@@H]1[C@@H]2CC[C@@]2(C)[C@H]1C(=O)C[C@@]21CCC(=O)O1
Activity (Rattus norvegicus [2]): 15%
T/C (Rattus norvegicus [1]): 1.01

C[C@]12CCC(=O)C=C1C=C[C@@H]1[C@@H]2CC[C@@]2(C)[C@H]1C[C@H](O)[C@@]21CCC(=O)O1
T/C (Rattus norvegicus [1]): 0.84

C[C@]12CCC(=O)C=C1C=C[C@H]1C3=CC[C@@]4(CCC(=O)O4)[C@@]3(C)CC[C@@H]12
T/C (Rattus norvegicus [1]): 0.67

C[C@]12CCC(=O)C=C1C=CC1=C3CC[C@@]4(CCC(=O)O4)[C@@]3(C)CC[C@@H]12
T/C (Rattus norvegicus [1]): 0.82

C[C@]12CCC(=O)C=C1C=C[C@@H]1[C@@H]2CC[C@@]2(C)[C@H]1CC[C@@]21CCC(=O)O1 [CANRENONE]
Activity (Rattus norvegicus [3]): 38%
Activity (Rattus norvegicus [4]): 35%
